The results in this text go back to US10369138B2, “Monobactam organic compounds for the treatment of bacterial infections” (Novartis AG, priority 2014, dated 2019).

Assay [1] deals with E. coli strain 25922. The assay is described as follows: MIC by broth microdilution, E. coli strain 25922. The assay is classed as cell-based. How it is done: (§1) Bacterial isolates were cultivated from −70° C. frozen stocks by two consecutive overnight passages at 35° C. in ambient air on 5% blood agar (Remel, Lenexa, Kans.). Quality control and P. aeruginosa ATCC 27853) is from the American Type Culture Collection (ATCC; Rockville, Md.) and PAO1 was received from Dr. K. Poole.
Minimal Inhibitory Concentrations (MICs) were determined by the broth microdilution method in accordance with Clinical and Laboratories Institute (CLSI) guidelines. In brief, fresh overnight bacterial cultures were suspended in sterile saline, and adjusted to a 0.5 McFarland turbidity standard. Bacterial suspensions were then diluted in cation adjusted Mueller-Hinton Broth (MHB II; BBL) to yield a final inoculum of approximately 5×10^5 colony-forming units (CFU)/mL. A master plate of antibiotics was prepared at a concentration equivalent to hundred-fold the highest desired final concentration in 100% dimethyl sulfoxide (DMSO). The master antibiotic plate was then diluted by serial twofold dilution with a multichannel pipette. The resulting dilution series of compounds were diluted 1:10 with sterile water leading to a 10% DMSO final concentration. A volume of 10 μL of the drug dilution series was transferred to 96-well assay plates. Assay plates were inoculated with 90 μL of bacterial suspensions and incubated at 35-37° C. for 20 hrs. The assay plates were read using a microtiter plate reader (Molecular Devices) at 600 nm as well as by visual observation with a reading mirror. The lowest concentration of the compound that prevented visible growth was recorded as the MIC. Performance of the assay was monitored by testing aztreonam against laboratory quality control strains in accordance with guidelines of the CLSI.

Assay [2] has as its system E. coli containing KPC-2. Description: MIC by broth microdilution, E. coli containing KPC-2 (Ec KPC2 Iso). It counts as cell-based. As to conditions: Escherichia coli, read-out: Ec KPC2 Iso (MIC), E. coli containing KPC-2 (carbapenemase from Klebsiella pneumoniae). The protocol:
as §1
Strain NB27273 (BW25113 pspB::Km^r) was obtained from the Keio transposon insertion collection. The strain has the pspB gene replaced by a kanamycin resistance marker (BW25113 pspB::Km^r). This strain was cured of the transposon in pspB via FLP recombinase using published methodology. The resulting strain, BW25113 pspB, was used as a host for multicopy vectors expressing key β-lactamases. Multicopy plasmids directing constitutive expression of β-lactamases were established as follows: Synthetic, codon optimized genes encoding E. coli KPC2 and SHV12 β-lactamases were made by DNA2.0 (Palo Alto, Calif.). Each of the synthetic fragments were designed to contain NotI and NcoI restriction sites at their termini, allowing ligation into a NotI/NcoI digested pET28a(+) derivative for protein expression. […] The codon optimized nucleotide sequences and relevant primer recognition information is shown below:
The PCR products were then digested with XhoI and EcoRI and ligated into similarly digested plasmid pAH63-pstS(BlaP). Plasmid pAH63-pstS(BlaP) is a derivative of plasmid pAH63 (J Bacteriol: 183(21): 6384-6393) made by cloning the TEM-1 (bla) promoter and signal peptide encoding region from plasmid pBAD (J Bacteriol. 1995 July 177(14):4121-30) into plasmid pAH63. This fragment was PCR amplified from pBAD using primer pair E192 (ttca[…]) (SEQ ID NO:13) and E194 ([…]) (SEQ ID NO:14), digested with PstI and BamHI and inserted into similarly digested plasmid pAH63. Therefore, expression of β-lactamases from pAH63-pstS(BlaP) based constructs is constitutive and the signal sequence is provided to direct these proteins to the periplasm. Plasmid pAH63 based vectors are used for insertion into the genome in single copy, however, to provide higher expression levels to allow more sensitive detection of the susceptibility of compounds to the β-lactamases, the expression inserts contained in these vectors were moved to the replicative multicopy vector pBAD-Kan (J Bacteriol. 1995 July 177(14):4121-30). To accomplish this, the inserts encompassing the β-lactamase genes, with the associated TEM promoter and signal sequences, were PCR amplified from their corresponding vectors using primer E269 (ccg[…]) (SEQ ID NO:15) and E202 (aatc[…]) (SEQ ID NO:16) for the KPC2 construct and E204 (aatc[…]) (SEQ ID NO:17) for the SHV12 construct. These fragments were then digested with XbaI and EcoRI, and each was inserted into pBAD18-kan that had been digested with the same enzymes to generate a pair of multicopy vectors expressing KPC2 and SHV12 respectively. These vectors were transformed into BW25113 pspB to generate strains NB27273-CDY0033 (expressing KPC2) and NB27273-CDY0030 (expressing SHV12). The pBAD18-kan vector also contains the TEM promoter region and signal sequence, (but lacks any intact β-lactamase genes) and was transformed into BW25113 pspB using standard protocols to generate the control strain NB27273-CDY0026. Expression of the β-lactamases was confirmed by verifying decreased susceptibility to example test antibiotics that are known substrates of KPC2 or SHV12. Susceptibility Testing
Minimal Inhibitory Concentrations (MICs) were determined by the broth microdilution method in accordance with Clinical and Laboratories Institute (CLSI) guidelines. In brief, fresh overnight bacterial cultures were suspended in sterile saline, and adjusted to a 0.5 McFarland turbidity standard. Bacterial suspensions were then diluted in cation adjusted Mueller-Hinton Broth (MHB II; BBL) to yield a final inoculum of approximately 5×10^5 colony-forming units (CFU)/mL. […]

[3] abbreviates: Escherichia coli, 25922, E. coli strain 25922, read-out: Ec 25922 (MIC).

Converted amounts (≈) assume the structure as drawn. Where two headings read alike, the source gives them in different places.

Usually MIC stands for the smallest concentration in the dilution series that meets the test's criterion for growth inhibition.

On to `N=C(NCc1cnn(C[C@@H]2[C@H](NC(=O)/C(=N\OC3(C(=O)O)CC3)c3csc(N)n3)C(=O)N2S(=O)(=O)O)n1)N[C@@H]1CCNC1` (stereo in doubt) [Example 142, 1-(((Z)-(1-(2-aminothiazol-4-yl)-2-oxo-2-(((3S,4R)-2-oxo-4-((4-((3-(®-pyrrolidin-3-yl)guanidino)methyl)-2H-1,2,3-triazol-2-yl)methyl)-1-sulfoazetidin-3-yl)amino)ethylidene)amino)oxy)cyclopropanecarboxylic acid], for which the minimal inhibitory concentration (MIC) in assay [1] (setting [3]) turned out to be 0.5 µg/mL (≈ 0.78 µM); in assay [2] it was 0.25 µg/mL (≈ 0.39 µM).

For `CC(C)(O/N=C(\C(=O)N[C@@H]1C(=O)N(S(=O)(=O)O)[C@@H]1CN1CCOC1=O)c1csc(N)n1)C(=O)O` [Example 2, 2-(((Z)-(1-(2-aminothiazol-4-yl)-2-oxo-2-(((3S,4R)-2-oxo-4-((2-oxooxazolidin-3-yl)methyl)-1-sulfoazetidin-3-yl)amino)ethylidene)amino)oxy)-2-methylpropanoic acid], the MIC in assay [1] (setting [3]) is 1 µg/mL (≈ 1.92 µM); in assay [2], 0.5 µg/mL (≈ 0.961 µM). For `CC(C)(O/N=C(\C(=O)N[C@@H]1C(=O)N(S(=O)(=O)O)[C@@H]1CN1CCNC1=O)c1csc(N)n1)C(=O)O` [Example 3, 2-(((Z)-(1-(2-aminothiazol-4-yl)-2-oxo-2-(((3S,4R)-2-oxo-4-((2-oxoimidazolidin-1-yl)methyl)-1-sulfoazetidin-3-yl)amino)ethylidene)amino)oxy)-2-methylpropanoic acid], in that order: 2 µg/mL (≈ 3.85 µM) and 1 µg/mL (≈ 1.92 µM).

Turning to `CC(C)(O/N=C(\C(=O)N[C@@H]1C(=O)N(S(=O)(=O)O)[C@@H]1Cn1nnc(CNC(=N)N)n1)c1csc(N)n1)C(=O)O` [Example 5, 2-(((Z)-(1-(2-aminothiazol-4-yl)-2-(((2R,3S)-2-((5-(guanidinomethyl)-2H-tetrazol-2-yl)methyl)-4-oxo-1-sulfoazetidin-3-yl)amino)-2-oxoethylidene)amino)oxy)-2-methylpropanoic acid], the MIC is 1 µg/mL (≈ 1.74 µM) in assay [1] (setting [3]) and 4 µg/mL (≈ 6.96 µM) in assay [2]. Consider `CC(C)(O/N=C(\C(=O)N[C@@H]1C(=O)N(S(=O)(=O)O)[C@@H]1Cn1nnnc1CN)c1csc(N)n1)C(=O)O` [Example 6, 2-(((Z)-(2-(((2R,3S)-2-((5-(aminomethyl)-1H-tetrazol-1-yl)methyl)-4-oxo-1-sulfoazetidin-3-yl)amino)-1-(2-aminothiazol-4-yl)-2-oxoethylidene)amino)oxy)-2-methylpropanoic acid], for which the MIC in assay [1] (setting [3]) was determined as 4 µg/mL (≈ 7.51 µM); in assay [2] it was 1 µg/mL (≈ 1.88 µM). Regarding `Cc1nnnn1C[C@@H]1[C@H](NC(=O)/C(=N\OC(C)(C)C(=O)O)c2csc(N)n2)C(=O)N1S(=O)(=O)O` [Example 8, 2-(((Z)-(1-(2-aminothiazol-4-yl)-2-(((2R,3S)-2-((5-methyl-1H-tetrazol-1-yl)methyl)-4-oxo-1-sulfoazetidin-3-yl)amino)-2-oxoethylidene)amino)oxy)-2-methylpropanoic acid], the minimum inhibitory concentration (MIC) in assay [1] (setting [3]) and in assay [2] was 2 µg/mL (≈ 3.86 µM) in each case. In the case of `CC(C)(O/N=C(\C(=O)N[C@@H]1C(=O)N(S(=O)(=O)O)[C@@H]1Cn1cncn1)c1csc(N)n1)C(=O)O` [Example 9, 2-(((Z)-(2-(((2R,3S)-2-((1H-1,2,4-triazol-1-yl)methyl)-4-oxo-1-sulfoazetidin-3-yl)amino)-1-(2-aminothiazol-4-yl)-2-oxoethylidene)amino)oxy)-2-methylpropanoic acid], the MIC in assay [1] (setting [3]) and in assay [2] was 1 µg/mL (≈ 1.99 µM) each time. For the compound `CC(C)(O/N=C(\C(=O)N[C@@H]1C(=O)N(S(=O)(=O)O)[C@@H]1Cn1cnc(CN)n1)c1csc(N)n1)C(=O)O` [Example 10, 2-(((Z)-(2-(((2R,3S)-2-((3-(aminomethyl)-1H-1,2,4-triazol-1-yl)methyl)-4-oxo-1-sulfoazetidin-3-yl)amino)-1-(2-aminothiazol-4-yl)-2-oxoethylidene)amino)oxy)-2-methylpropanoic acid], the MIC in assay [1] (setting [3]) is 4 µg/mL (≈ 7.53 µM); in assay [2], 11 µg/mL (≈ 20.7 µM). For `CC(C)(O/N=C(\C(=O)N[C@@H]1C(=O)N(S(=O)(=O)O)[C@@H]1Cn1cnc(CNC(=N)N)n1)c1csc(N)n1)C(=O)O` [Example 11, 2-(((Z)-(1-(2-aminothiazol-4-yl)-2-(((2R,3S)-2-((3-(guanidinomethyl)-1H-1,2,4-triazol-1-yl)methyl)-4-oxo-1-sulfoazetidin-3-yl)amino)-2-oxoethylidene)amino)oxy)-2-methylpropanoic acid], in that order: 4 µg/mL (≈ 6.97 µM) and 4 µg/mL (≈ 6.97 µM).

Take `CC(C)(O/N=C(\C(=O)N[C@@H]1C(=O)N(S(=O)(=O)O)[C@@H]1Cn1ncnc1CN)c1csc(N)n1)C(=O)O` [Example 12, 2-(((Z)-(2-(((2R,3S)-2-((5-(aminomethyl)-1H-1,2,4-triazol-1-yl)methyl)-4-oxo-1-sulfoazetidin-3-yl)amino)-1-(2-aminothiazol-4-yl)-2-oxoethylidene)amino)oxy)-2-methylpropanoic acid]: the MIC in assay [1] (setting [3]) and in assay [2] was 4 µg/mL (≈ 7.53 µM) throughout. Regarding `CC(C)(O/N=C(\C(=O)N[C@@H]1C(=O)N(S(=O)(=O)O)[C@@H]1Cn1ncnc1CNC(=N)N)c1csc(N)n1)C(=O)O` [Example 13, 2-(((Z)-(1-(2-aminothiazol-4-yl)-2-(((2R,3S)-2-((5-(guanidinomethyl)-1H-1,2,4-triazol-1-yl)methyl)-4-oxo-1-sulfoazetidin-3-yl)amino)-2-oxoethylidene)amino)oxy)-2-methylpropanoic acid], the MIC stood at 16 µg/mL (≈ 27.9 µM) in assay [1] (setting [3]) and 32 µg/mL (≈ 55.8 µM) in assay [2]. Turning to `Nc1nc(/C(=N/OC2(C(=O)O)CC2)C(=O)N[C@@H]2C(=O)N(S(=O)(=O)O)[C@@H]2Cn2ncc(CNC3CNC3)n2)cs1` [Example 103, 1-(((Z)-(1-(2-aminothiazol-4-yl)-2-(((2R,3S)-2-((4-((azetidin-3-ylamino)methyl)-2H-1,2,3-triazol-2-yl)methyl)-4-oxo-1-sulfoazetidin-3-yl)amino)-2-oxoethylidene)amino)oxy)cyclopropanecarboxylic acid], in assay [1] (setting [3]), the MIC was determined as 0.25 µg/mL (≈ 0.428 µM). For `NCC1CN(C[C@@H]2[C@H](NC(=O)/C(=N\OC3(C(=O)O)CC3)c3csc(N)n3)C(=O)N2S(=O)(=O)O)C(=O)N1` (stereo partly drawn) [Example 122, 1-(((Z)-(2-(((2R,3S)-2-((4-(aminomethyl)-2-oxoimidazolidin-1-yl)methyl)-4-oxo-1-sulfoazetidin-3-yl)amino)-1-(2-aminothiazol-4-yl)-2-oxoethylidene)amino)oxy)cyclopropanecarboxylic acid], the MIC is at most 0.06 µg/mL in assay [1] (setting [3]) and 0.125 µg/mL (≈ 0.229 µM) in assay [1] (Escherichia coli, 25922, read-out: Ec 25922 (MIC)).
